The record followed here is patent US11559527B2 (priority 2017, dated 2023).

SMILES strings stand for the structures.

Holding throughout (assay type): cell-based, Human
One test deals with E-cadherin. The test is described as follows: Western blotting (immunoblot). The note with it: MCF7 cells after mDIVI-1 treatment. The procedure:
Breast cancer stem cells can exist in distinct states, an mesenchymal-like state and an epithelial-like state, being the first one characterized for its expression of CD24^−/CD44^+, with an mesenchymal-like gene-expression profile and primarily quiescent.
At the end of the treatment, cells in suspension were spun down and lysed and attached cells were directly lysed in RIPA lysis buffer (R0278, Sigma) containing proteinase inhibitors (05 892 970 001, Roche) and kept at 4° C. for 20 minutes with rotation. Lysates were cleared by centrifugation for 10 minutes at 10,000×g and supernatants were collected. Equal amounts of protein lysate, as determined by using the BCA protein assay kit (23225, Pierce) were diluted in SDS sample buffer and dry-boiled for 5 minutes before being separated by SDS-PAGE using 4-20% gels (456-1094, Biorad). Samples were then blotted onto nitrocellulose membranes (170-4159, Biorad), blocked in 5% milk in TBS-Tween 20 (P9416, Sigma) for 1 hour and probed with antibodies against E-cadherin (ab8995, Abcam) or β-actin (a2228, Sigma). Bound antibodies were detected using a horseradish peroxidase-conjugated secondary antibody (ab6789 and ab6721, Abcam) and signal was obtained using Supersignal West Pico chemiluminiscent substrate (34087, ThermoScientific). Pictures were taken in a ChemiDoc XRS with Image Lab Software (BioRad).

For test [1], the system named is MCF7 cells. As to the kind of experiment: Scratch assay (wound closure, migration). The following applies: 48 hours, vs vehicle. From the text: It is though that CSCs are responsible for metastatic spread and growth. Emerging evidence highlights the role of mitochondrial dynamics in tumor cell dissemination. […] In migrating cancer cells mitochondria accumulate at the leading edge where processes requiring high energy occur, such as formation of focal adhesions. Fission seems to be a prerequisite for that efficient relocation of mitochondria. Indeed, upregulation/activation of DRP1 is associated with a migratory and invasive phenotype in cancer. […] Through a scratch assay, were cells were cultured in the presence of either vehicle or mDIVI-1. The scratch was monitored over time and the percentage of wound closure was measured as described previously.
SCRATCH ASSAY: A hundred thousand MCF7 cells per well were seeded in 12-well plates. When cells were attached, a horizontal scratch was performed using the tip of a pipette. Immediately after, the media was removed and either fresh vehicle-containing media or mDIVI-1-containing media were added to the cells for 48 hours. Four replicates were used for each condition. […] The wound closure was monitored by taking pictures of each well every 4 hours. At the end of the treatment, pictures of the wells at 0 and 48 hours were analysed using ImageJ software to calculate wound closure according to the following formula: Percentage wound closure=[(wound area0 h−wound area48 h)/wound area0 h]×100.

Test [2] has as its system MCF7 cells. The test is described as follows: Mitochondrial staining with Mitotracker Deep Red (microscopy). The note with it: 10 μM, 2- and 5-day treatment. From the text: In order to assess whether the inhibition of DRP1 was actually being translated into a reduction in mitochondrial fission, the inventors stained the mitochondria of MCF7 cells with Mitotracker Deep Red, which is a marker of mitochondrial mass. […] The original images are black background with shades of red over the cells, whereas the images in FIG. 3 have been color-inverted and generated in grey scale. Mitochondrial mass was also quantified by flow cytometry. FIGS. 4A-4C show results of mitochondrial mass quantification. In FIG. 4A, Mitotracker Deep Red mean intensity relative to vehicle intensity is shown for 2-day and 5-day treatments.
MITOCHONDRIAL STAINING: One hundred thousand MCF7 cells were seeded onto coverslips in 12-well plates. When cells were attached, mDIVI-1 and vehicle treatments were performed in triplicate. After 2 days and 5 days, mitochondria were labeled by incubating cells for 15 min at 37° C. with 25 nM of MitoTracker DeepRed (M22426, Invitrogen) diluted in PBS (D8662, Sigma). Then, cells were washed with PBS, fixed in 2% paraformaldehyde (28908, Thermo Scientific) in PBS for 30 minutes at room temperature and mounted with ProLong® Gold Antifade Mountant reagent with DAPI (P36935, Invitrogen, Inc.). […]

Test [3] deals with MCF7 cells. The test is described as follows: Mitochondrial superoxide (MitoSOX, flow cytometry). The following applies: both concentrations of mDIVI-1, compared to vehicle. From the text: Inhibition of the mitochondrial fission impacts on other mitochondrial processes, such as mitochondrial metabolism and general and mitochondrial oxidative stress. To confirm, MCF7 cells were stained with MitoSOX and CM-H2DCFDA, and mitochondrial superoxide and total ROS were quantified by flow cytometry. […] Whereas the increase in general ROS goes in line with the increase in mitochondrial content, the boost in the levels of mitochondrial superoxide in mDIV1-treated cells is actually bigger than the observed increased mitochondrial content.
LEVELS OF REACTIVE OXYGEN SPECIES AND MITOCHONDRIAL SUPEROXIDE: For both assays, 2×10^5 MCF7 cells were seeded in 35 mm plates. […] Reactive oxygen species (ROS) production was measured using CM-H2DCFDA (C6827, Invitrogen). Briefly, cells were incubated for 20 minutes at 37° C. with 1 μM CM-H2DCFDA diluted in PBS and then placed in complete media for 20 minutes at 37° C. in the dark, to render the dye fluorescent, according to the manufacturer. Mitochondrial superoxide was measured using MitoSOX Red Mitochondrial Superoxide Indicator (M36008, ThermoFisher Scientific). […] ROS signal and MitoSOX signal was quantified as mean fluorescent intensity of the viable cell population in a Fortessa flow cytometer (BD Bioscience). Results were analysed using FlowJo software.

Regarding `COc1cc(-n2c(S)nc3ccccc3c2=O)c(Cl)cc1Cl` [mDIVI-1, 3-(2,4-Dichloro-5-methoxyphenyl)-2-sulfanyl-4(3H)-quinazolinone], in the test with E-cadherin, the “expression of E-cadherin” value is recorded as “reduction”. The figures for the “reduction of percentage of wound closure” value with MCF7 cells [1] (10 μM) and in the test with MCF7 cells [1] (50 μM) were 14% and 44%, respectively. In addition, in the test on MCF7 cells [2], the mitochondrial morphology entry is on record as “more interconnected mitochondria”. The “mitochondrial superoxide production (MitoSOX)” value with MCF7 cells [3] is on record as “significantly increased”.
